Laboratory results from patent publication USRE32098E (Research and Education Institute, Inc., priority 1978, dated 1986).
Structures can show the parent of a compound that is named as a salt. Where two headings read alike, the source gives them in different places.

How the values were obtained:
[1] = biological target: T1, TBG (thyroxine-binding globulin) (Homo sapiens, UniProt P05543); assay: Displacement of radioactive T4 from TBG in a CPBA system; parameters: AMOUNT T4 DISPLACED FROM TBG: unit not given here
T1 construct: from tissue; host or cells: human serum, diluted 1/32
T1 sequence (P05543 21-415): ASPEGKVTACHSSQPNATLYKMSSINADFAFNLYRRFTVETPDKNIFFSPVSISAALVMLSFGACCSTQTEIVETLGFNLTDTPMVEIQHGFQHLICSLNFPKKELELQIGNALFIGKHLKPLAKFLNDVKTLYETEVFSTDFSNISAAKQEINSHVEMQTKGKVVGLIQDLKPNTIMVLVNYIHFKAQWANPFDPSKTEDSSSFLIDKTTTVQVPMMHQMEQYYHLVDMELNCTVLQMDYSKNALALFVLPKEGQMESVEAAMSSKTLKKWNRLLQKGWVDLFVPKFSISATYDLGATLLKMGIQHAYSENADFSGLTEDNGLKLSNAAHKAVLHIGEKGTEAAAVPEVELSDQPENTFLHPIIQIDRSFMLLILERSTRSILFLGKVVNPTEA

TBG [2] = biological target: T2, TBG (Homo sapiens, UniProt P05543); assay: Displacement of radioactive T3 from TBG; format: binding
T2 construct: from tissue; host or cells: serum
T2 sequence (P05543 21-415): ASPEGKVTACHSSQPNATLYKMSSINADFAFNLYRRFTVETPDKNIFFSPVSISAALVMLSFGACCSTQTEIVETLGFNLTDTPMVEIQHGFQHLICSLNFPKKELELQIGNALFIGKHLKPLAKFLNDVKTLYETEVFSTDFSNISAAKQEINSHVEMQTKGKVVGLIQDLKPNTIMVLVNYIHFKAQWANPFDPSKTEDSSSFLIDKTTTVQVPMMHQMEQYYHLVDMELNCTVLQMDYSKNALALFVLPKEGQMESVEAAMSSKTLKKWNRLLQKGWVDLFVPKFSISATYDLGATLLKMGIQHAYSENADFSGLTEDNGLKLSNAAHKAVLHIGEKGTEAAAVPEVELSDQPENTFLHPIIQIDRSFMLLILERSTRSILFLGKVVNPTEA

[3] = system: thyroxine binding prealbumin (TBPA); assay: T4 binding by prealbumin
[4] = system: proteins such as thyroxine-binding globulin (TBG), prealbumin (TBPA) and albumin; conditions: normal human serum; cited from earlier work
sheep serum TBG = assay: Adequacy of the amount of ANS in T3 RIA: T3-125I bound to T3-binding antibody in presence of sheep serum and ANS versus plain buffer; conditions: 200 ug ANS
TBG [5] = assay: T4 RIA standard curves in barbital buffer and in presence of T4-free serum (FIG. 2); format: binding; conditions: 25 ul T4-free serum
[6] = system: T3-binding sites on the rabbit antiserum; assay: Affinity for T3-binding sites on the rabbit antiserum
Solubility at pH of RIA = format: physicochemical
TBG [7] = biological target: T2, TBG; assay: Maximal T4-binding capacity of TBG in serum (method of Inada and Sterling); conditions: 7 euthyroid subjects with high serum TBG

O=C([O-])c1ccccc1O.[Na+] [Sodium Salicylate]
AMOUNT T4 DISPLACED FROM TBG [1]: 6.1 | AMOUNT T3 DISPLACED FROM TBG (TBG [2]): 11.0 ng | effect on T4 binding by prealbumin [3]: affected

N[C@@H](Cc1cc(I)c(Oc2ccc(O)c(I)c2)c(I)c1)C(=O)O [T3, triiodothyronine]
present as unbound (dialyzable or free) hormone [4]: 0.3%

CN1CCN(CCCN2c3ccccc3Sc3ccc(Cl)cc32)CC1 [Prochlorperazine]
AMOUNT T4 DISPLACED FROM TBG [1]: 7.2 | AMOUNT T3 DISPLACED FROM TBG (TBG [2]): 7.0 ng

CN(C)CCCN1c2ccccc2Sc2ccc(Cl)cc21 [Chlorpromazine HCl]
AMOUNT T4 DISPLACED FROM TBG [1]: 5.6 | AMOUNT T3 DISPLACED FROM TBG (TBG [2]): 6.6 ng

O=C1NC(=O)C(c2ccccc2)(c2ccccc2)N1 [Dilantin]
AMOUNT T4 DISPLACED FROM TBG ([1]; 100 ug blocking agent): 5.7

O=S(=O)(O)c1ccc2cc(N=Nc3ccc(Nc4ccccc4)c4ccccc34)c(S(=O)(=O)O)cc2c1 [ANNDS, 3-(4-anilino-1-napthylazo) 2,7-napthalene disulfonic acid]
AMOUNT T4 DISPLACED FROM TBG ([1]; 50 ug blocking agent): > 20 | AMOUNT T3 DISPLACED FROM TBG (TBG [2]; 10 ug blocking agent): 10.4 ng

C[CH2][Hg][S]c1ccccc1C(=O)[O-].[Na+] [Thimerosal]
AMOUNT T4 DISPLACED FROM TBG [1]: 8.4 | AMOUNT T3 DISPLACED FROM TBG (TBG [2]): 8.0 ng

O=C1NC(=S)NC1(c1ccccc1)c1ccccc1 [5,5 diphenyl-2 thiohydantoin]
AMOUNT T4 DISPLACED FROM TBG ([1]; 100 ug blocking agent): 6.1 | AMOUNT T3 DISPLACED FROM TBG (TBG [2]; 10 ug blocking agent): 7.6 ng

CN(C)CCC=C1c2ccccc2COc2ccccc21 [Doxepin HCl]
AMOUNT T4 DISPLACED FROM TBG [1]: 8.2 | AMOUNT T3 DISPLACED FROM TBG (TBG [2]): 10.8 ng

O=S(=O)(O)c1cccc2ccccc12 [αNapthalene Sulfonic Acid]
AMOUNT T4 DISPLACED FROM TBG ([1]; 100 ug blocking agent): 3.0 | AMOUNT T3 DISPLACED FROM TBG (TBG [2]; 100 ug blocking agent): 7.0 ng

O=S(=O)(O)c1cccc2cccc(Nc3ccccc3)c12 [ANS, 8-anilino-1-napthalene-sulfonic acid]
AMOUNT T4 DISPLACED FROM TBG [1]: 18 | T4 displaced from TBG [1]: 18 nanograms (ng) | concentration of T4 in serum up to which all T4 is displaced [1]: ≤ 72 ug per 100 ml | AMOUNT T3 DISPLACED FROM TBG (TBG [2]): 11.2 ng | T3 displaced from TBG (TBG [2]): 11.2 nanograms (ng) | concentration of T3 in serum up to which all T3 may be displaced (TBG [2]): ≤ 88 ug T3 per 100 ml | displacement of T3 bound to TBG (TBG [2]): displaces nearly all T3 bound to TBG | prevention of binding of radioactive T3 to TBG (TBG [2]): prevents completely the binding of radioactive T3 to TBG | neutralization of the inhibiting effect of sheep serum TBG (sheep serum TBG): almost complete neutralization | radioactivity bound to antibody relative to that in plain buffer (sheep serum TBG; with sheep serum, no stable T3): 95-98% | blocking of TBG in serum (TBG [5]): TBG in the serum was adequately blocked | effect on T4 binding by prealbumin [3]: affected | affinity for T3-binding sites on the rabbit antiserum [6]: negligible affinity | solubility compared with Dilantin and tetrachlorthyronine (Solubility at pH of RIA): better solubility at pH of RIA

CN1C(=O)CN=C(c2ccccc2)c2cc(Cl)ccc21 [Diazepam]
AMOUNT T4 DISPLACED FROM TBG [1]: 6.3 | AMOUNT T3 DISPLACED FROM TBG (TBG [2]): 7.0 ng

CC(=O)NCCOC(=O)C(Oc1cccc(C(F)(F)F)c1)c1ccc(Cl)cc1 (centres unmarked) [Halofenate]
AMOUNT T4 DISPLACED FROM TBG ([1]; 100 ug blocking agent): 8.4 | AMOUNT T3 DISPLACED FROM TBG (TBG [2]; 10 ug blocking agent): 5.2 ng

B1: TBG: thyroxine-binding globulin, serum protein binding thyroid hormones (protein, UniProt P05543 21-415, looked up)
Thyroxine-binding globulin: ASPEGKVTACHSSQPNATLYKMSSINADFAFNLYRRFTVETPDKNIFFSPVSISAALVMLSFGACCSTQTEIVETLGFNLTDTPMVEIQHGFQHLICSLNFPKKELELQIGNALFIGKHLKPLAKFLNDVKTLYETEVFSTDFSNISAAKQEINSHVEMQTKGKVVGLIQDLKPNTIMVLVNYIHFKAQWANPFDPSKTEDSSSFLIDKTTTVQVPMMHQMEQYYHLVDMELNCTVLQMDYSKNALALFVLPKEGQMESVEAAMSSKTLKKWNRLLQKGWVDLFVPKFSISATYDLGATLLKMGIQHAYSENADFSGLTEDNGLKLSNAAHKAVLHIGEKGTEAAAVPEVELSDQPENTFLHPIIQIDRSFMLLILERSTRSILFLGKVVNPTEA
maximal T4-binding capacity of TBG (mean) (TBG [7]): 46.9 ug per 100 ml
